Measurements from ChEMBL document CHEMBL6127085, “Design, synthesis and evaluation of novel LpxC inhibitors containing a hydrazone moiety as Gram-negative antibacterial agents” (Eur J Med Chem, 2024).
Values after ≈ are worked out from the molar mass of the structure shown.

Key:
Escherichia coli [1] = assay: Antibacterial activity against Escherichia coli ATCC25922 assessed as reduction in bacterial growth measured after 18 to 24 hrs by CLSI protocol based method; format: functional; settings: time 18-24 hrs
Pseudomonas aeruginosa [2] = assay: Antibacterial activity against Pseudomonas aeruginosa ATCC27853 assessed as reduction in bacterial growth measured after 18 to 24 hrs by CLSI protocol based method; format: functional; settings: time 18-24 hrs
Pseudomonas aeruginosa [3] = assay: Antibacterial activity against Pseudomonas aeruginosa clinical isolate PAE22-1 assessed as reduction in bacterial growth measured after 18 to 24 hrs by CLSI protocol based method; format: functional; settings: time 18-24 hrs
Klebsiella pneumoniae [4] = assay: Antibacterial activity against Klebsiella pneumoniae ATCC700603 assessed as reduction in bacterial growth measured after 18 to 24 hrs by CLSI protocol based method; format: functional; settings: time 18-24 hrs
Klebsiella pneumoniae [5] = assay: Antibacterial activity against Klebsiella pneumoniae clinical isolate KPN+22-1 assessed as reduction in bacterial growth measured after 18 to 24 hrs by CLSI protocol based method; format: functional; settings: time 18-24 hrs
Escherichia coli [6] = assay: Potency index, ratio of CHIR-090 MIC to test compound MIC for antibacterial activity against Escherichia coli ATCC25922 assessed as reduction in bacterial growth measured after 18 to 24 hrs by CLSI protocol based method; format: functional; settings: time 18-24 hrs
[7] = Metabolic stability in human liver microsomes assessed as half life at 1 uM preincubated for 5 mins followed by NADPH addition and measured after 5 to 60 mins by LC-MS analysis; format: ADME, Microsome; settings: liver microsomes, time 10-65 min
[8] = Metabolic stability in rat liver microsomes assessed as half life at 1 uM preincubated for 5 mins followed by NADPH addition and measured after 5 to 60 mins by LC-MS analysis; format: ADME, Microsome; settings: liver microsomes, time 10-65 min
[9] = Metabolic stability in mouse liver microsomes assessed as half life at 1 uM preincubated for 5 mins followed by NADPH addition and measured after 5 to 60 mins by LC-MS analysis; format: ADME, Microsome; settings: liver microsomes, time 10-65 min
[10] = Metabolic stability in human liver microsomes assessed as intrinsic clearance at 1 uM preincubated for 5 mins followed by NADPH addition and measured after 5 to 60 mins by LC-MS analysis; format: ADME, Microsome; settings: time 10-65 min, read-out: CLH
[11] = Metabolic stability in rat liver microsomes assessed as intrinsic clearance at 1 uM preincubated for 5 mins followed by NADPH addition and measured after 5 to 60 mins by LC-MS analysis; format: ADME, Microsome; settings: liver microsomes, time 10-65 min, read-out: CLH
[12] = Metabolic stability in mouse liver microsomes assessed as intrinsic clearance at 1 uM preincubated for 5 mins followed by NADPH addition and measured after 5 to 60 mins by LC-MS analysis; format: ADME, Microsome; settings: liver microsomes, time 10-65 min, read-out: CLH
[13] = Intrinsic clearance in human; format: ADME; settings: read-out: CLH
[14] = Intrinsic clearance in rat; format: ADME; settings: read-out: CLH
[15] = Intrinsic clearance in mouse; format: ADME, organism-based; settings: read-out: CLH

Row | SMILES | MIC (Escherichia coli [1]) | MIC (Pseudomonas aeruginosa [2]) | MIC (Pseudomonas aeruginosa [3]) | MIC (Klebsiella pneumoniae [4]) | MIC (Klebsiella pneumoniae [5]) | Ratio (Escherichia coli [6]) | half-life at 1 µM [7] | half-life at 1 µM [8] | half-life at 1 µM [9] | microsomal CLint at 1 µM [10] | microsomal CLint at 1 µM [11] | microsomal CLint at 1 µM [12] | CLint scaled [13] | CLint scaled [14] | CLint scaled [15]
1 | C[C@@H](O)[C@H](NC(=O)c1ccc(C#Cc2ccc(/C=N/N3CCSCC3)cc2)cc1)C(=O)NO | 0.25 µg/mL (≈ 0.536 µM) | > 64 µg/mL | 8 µg/mL (≈ 17.1 µM) | > 64 µg/mL | 1 µg/mL (≈ 2.14 µM) | 2 | – | – | – | – | – | – | – | – | –
2 | C[C@@H](O)[C@H](NC(=O)c1ccc(C#Cc2ccc(/C=N/N3CCOCC3)cc2)cc1)C(=O)NO | 0.25 µg/mL (≈ 0.555 µM) | > 64 µg/mL | 1 µg/mL (≈ 2.22 µM) | > 64 µg/mL | 1 µg/mL (≈ 2.22 µM) | 2 | 4.98 h | 7.9 h | 6.1 h | 7.16 µL/min/mg | 4.53 µL/min/mg | 1.79 µL/min/mg | 6.76 mL/min/kg | 8.15 mL/min/kg | 7.04 mL/min/kg
